Some test systems named below: UO-31 renal; NCI-H522 lung; TK-10 renal; SF-295 CNS; SNB-75 CNS; OVCAR-5 ovarian; HCT-116 colon; ACHN renal; MOLT-4 leukemia; HL-60(TB) leukemia; MALME-3M melanoma; K-562 leukemia; UACC-62 melanoma; IGROV1 ovarian; SK-OV-3 ovarian; HT29 colon; KM12 colon; SW-620 colon; EKVX NSCLC; SN12C renal.
Assay in all cases: NCI tumour cell line growth inhibition, 48 h

“And” between values parts separate entries of the source, which are not always exact repeats. Equal entries are not always repeated.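 In this assay, cells in 96-well plates receive the compound at five concentrations for 48 hours. Endpoints are linearly interpolated between the surrounding concentrations. At the TGI there is no net growth.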

For `Cc1c2cc[n+](C)cc2c(C)c2c1[nH]c1ccccc12`, the TGI with UO-31 renal is > 93.4 µM and 68.7 µM; in the experiment on NCI-H522 lung it was 3.6 µM and 3.45 µM; with TK-10 renal, more than 100 µM; in the experiment with SF-295 CNS, 1.71 µM and 2.08 µM; in the experiment on SNB-75 CNS, 0.755 µM and 0.779 µM; in the experiment with OVCAR-5 ovarian, 56.6 µM and 61.1 µM. The TGI is 35.2 µM and 33.6 µM in the experiment on HCT-116 colon; more than 100 µM with ACHN renal; 56.6 µM and 30.2 µM with MOLT-4 leukemia; 66.9 µM and 63.5 µM in the experiment with HL-60(TB) leukemia; 3.24 µM and 4.03 µM with MALME-3M melanoma; 43.1 µM and 40.2 µM in the experiment on K-562 leukemia. The TGI with UACC-62 melanoma was 22.5 µM and 27.4 µM; with IGROV1 ovarian, 78.1 µM and 75.3 µM; with SK-OV-3 ovarian it was 64.7 µM and 64.2 µM; in the experiment with HT29 colon, 62.7 µM and 71.6 µM; in the experiment on KM12 colon, 12.1 µM; with SW-620 colon it was 54.6 µM and 47.5 µM. The TGI with EKVX NSCLC was 11.1 µM and 14 µM; in the experiment with SN12C renal, 1.29 µM and 1.2 µM.

With `Nc1nc(N)c2ncn(CC(CO)CC(c3ccccc3)P(=O)(O)O)c2n1` (stereo not given), the TGI in the experiment with UO-31 renal, in the experiment with NCI-H522 lung, in the experiment on TK-10 renal, in the experiment on SF-295 CNS, with SNB-75 CNS and in the experiment with OVCAR-5 ovarian was more than 100 µM in each case. The TGI in the experiment with HCT-116 colon, in the experiment with ACHN renal, in the experiment with MOLT-4 leukemia, with HL-60(TB) leukemia, in the experiment on MALME-3M melanoma and with K-562 leukemia was more than 100 µM each time. Moreover, the TGI with UACC-62 melanoma, in the experiment with IGROV1 ovarian, with SK-OV-3 ovarian, in the experiment on HT29 colon, in the experiment on KM12 colon and in the experiment with SW-620 colon was more than 100 µM each time. In addition, the TGI in the experiment with EKVX NSCLC and with SN12C renal was more than 100 µM in each case.

On to `CCCCCCCCCC[C@@H](O)[C@@H]1CC[C@@H]([C@@H]2CC[C@@H]([C@@H](O)CCCCCCCCCCC(O)CC3=CC(C)OC3=O)O2)O1` (stereo not given in full), for which the TGI with UO-31 renal, in the experiment on NCI-H522 lung, with TK-10 renal, with SF-295 CNS, in the experiment on SNB-75 CNS and in the experiment with OVCAR-5 ovarian was more than 10 µM in each case. Moreover, the TGI in the experiment on HCT-116 colon was more than 10 µM; in the experiment with ACHN renal it was more than 10 µM; with MOLT-4 leukemia, more than 10 µM; in the experiment on HL-60(TB) leukemia it was 1.85 µM; with MALME-3M melanoma, more than 10 µM; in the experiment on K-562 leukemia it was more than 10 µM. In addition, the TGI in the experiment on UACC-62 melanoma, in the experiment with IGROV1 ovarian, with SK-OV-3 ovarian, with HT29 colon, in the experiment with KM12 colon and with SW-620 colon was more than 10 µM each time. Also, the TGI in the experiment on EKVX NSCLC and in the experiment on SN12C renal was more than 10 µM each time.

Source of the values: PubChem BioAssay (NCI).
